Experimental data from publication PMC2962730 (Journal of neurochemistry, 2010).
Positions count from the first letter of the chain named.

How the values were obtained:
[1] = target: T1, hVAChT W331L (Homo sapiens, UniProt Q16572, W331L); experiment: [3H]vesamicol saturation binding; conditions: pH 7.4
T1 sequence (Q16572 1-532 W331L): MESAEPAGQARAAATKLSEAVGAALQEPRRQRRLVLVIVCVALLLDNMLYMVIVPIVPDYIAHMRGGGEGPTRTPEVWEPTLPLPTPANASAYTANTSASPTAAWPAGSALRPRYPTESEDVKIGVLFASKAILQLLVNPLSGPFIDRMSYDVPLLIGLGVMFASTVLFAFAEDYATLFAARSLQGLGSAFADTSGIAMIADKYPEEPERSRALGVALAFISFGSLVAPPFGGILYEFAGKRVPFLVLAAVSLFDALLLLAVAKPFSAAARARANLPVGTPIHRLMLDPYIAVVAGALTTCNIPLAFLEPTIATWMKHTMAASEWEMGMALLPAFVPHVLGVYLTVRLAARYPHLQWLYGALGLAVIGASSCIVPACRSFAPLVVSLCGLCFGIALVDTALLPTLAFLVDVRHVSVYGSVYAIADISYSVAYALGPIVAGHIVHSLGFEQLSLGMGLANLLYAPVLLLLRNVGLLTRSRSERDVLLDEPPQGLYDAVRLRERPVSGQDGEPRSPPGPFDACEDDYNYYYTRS

[2] = target: T2, hVAChT M320A (Homo sapiens, UniProt Q16572, M320A); experiment: ACh equilibrium binding by competition against [3H]vesamicol
T2 sequence (Q16572 1-532 M320A): T1 sequence (Q16572 1-532 W331L) with M320A, L331W

[3] = target: T3, hVAChT W331A (Homo sapiens, UniProt Q16572, W331A); experiment: [3H]ACh transport; format: biochemical
T3 sequence (Q16572 1-532 W331A): T1 sequence (Q16572 1-532 W331L) with L331A

[4] = target: T4, hVAChT Y60H (Homo sapiens, UniProt Q16572, Y60H); experiment: ACh equilibrium binding by competition against [3H]vesamicol
T4 sequence (Q16572 1-532 Y60H): T1 sequence (Q16572 1-532 W331L) with Y60H, L331W

[5] = target: T5, hVAChT W315A (Homo sapiens, UniProt Q16572, W315A); experiment: as above
T5 sequence (Q16572 1-532 W315A): T1 sequence (Q16572 1-532 W331L) with W315A, L331W

[6] = target: T1, hVAChT W331L; experiment: [3H]ACh transport; format: biochemical

| Kd [2] [mM] | FHA, fraction of the ACh sites that have high affinity ([2]; M320A hVAChT, pH 7.4) | [3H]ACh transport [3] | Kd [4] [mM] | FHA, fraction of the ACh sites that have high affinity ([4]; Y60H hVAChT, pH 7.4) | Kd [5] [mM] | FHA, fraction of the ACh sites that have high affinity ([5]; W315A hVAChT, pH 7.4) | Vmax/Bmax, ACh transport normalized to Bmax ([6]; pH 7.4) [min⁻¹] | Km ([6]; read-out: KM, Michaelis-Menten constant for ACh transport, pH 7.4) [mM] | SMILES | Bmax, maximal specific [3H]vesamicol binding (VAChT expression level) [1] [pmol/mg] |
| --- | --- | --- | --- | --- | --- | --- | --- | --- | --- | --- |
| – | – | – | – | – | – | – | – | – | O[C@@H]1CCCC[C@H]1N1CCC(c2ccccc2)CC1 (racemic) [vesamicol, ( )-trans-2-(4-phenylpiperidino)cyclohexanol] | 14 ± 1 |
| 9.2 ± 0.8 | 0.73 ± 0.11 | no transport | 11 | 0.82 ± 0.04 | 11 ± 4 | 0.84 ± 0.16 | 6.2 ± 1.2 | 4.6 ± 1.5 | CC(=O)OCC[N+](C)(C)C [ACh, acetylcholine] | – |
